# Measured values published in PubChem BioAssay (NCI).
#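 Tested at 5 concentrations; 48 h exposure; 96-well plates; endpoints linearly interpolated, else capped at highest concentration. GI50 = concentration required for 50% inhibition of growth. TGI marks complete inhibition of growth.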
# Assays:
# Experiment in all cases: inhibition of tumour cell growth, NCI panel, 48 h
# KM12 colon = test system: KM12 colon
# SF-295 CNS = test system: SF-295 CNS
# SF-539 CNS = test system: SF-539 CNS
# TK-10 renal = test system: TK-10 renal
# RXF 393 renal = test system: RXF 393 renal
# PC-3 prostate = test system: PC-3 prostate
# SK-MEL-28 melanoma = test system: SK-MEL-28 melanoma
# HT29 colon = test system: HT29 colon
# OVCAR-4 ovarian = test system: OVCAR-4 ovarian
# ACHN renal = test system: ACHN renal
# HCC-2998 colon = test system: HCC-2998 colon
# 786-0 renal = test system: 786-0 renal
# UACC-257 melanoma = test system: UACC-257 melanoma
# MALME-3M melanoma = test system: MALME-3M melanoma
# SNB-19 CNS = test system: SNB-19 CNS
# CAKI-1 renal = test system: CAKI-1 renal
# MOLT-4 leukemia = test system: MOLT-4 leukemia
# OVCAR-8 ovarian = test system: OVCAR-8 ovarian
# CCRF-CEM leukemia = test system: CCRF-CEM leukemia
# LOX IMVI melanoma = test system: LOX IMVI melanoma
# EKVX NSCLC = test system: EKVX NSCLC
# UO-31 renal = test system: UO-31 renal
# MDA-MB-435 = test system: MDA-MB-435
# SK-MEL-2 melanoma = test system: SK-MEL-2 melanoma
# NCI-H23 lung = test system: NCI-H23 lung
# SK-OV-3 ovarian = test system: SK-OV-3 ovarian
# SN12C renal = test system: SN12C renal
# COLO 205 colon = test system: COLO 205 colon
# OVCAR-3 ovarian = test system: OVCAR-3 ovarian
# SNB-75 CNS = test system: SNB-75 CNS
# NCI-H522 lung = test system: NCI-H522 lung
# SF-268 CNS = test system: SF-268 CNS
# A498 renal = test system: A498 renal
# MDA-MB-231 breast = test system: MDA-MB-231 breast
# IGROV1 ovarian = test system: IGROV1 ovarian
# SK-MEL-5 melanoma = test system: SK-MEL-5 melanoma
# NCI/ADR-RES ovarian = test system: NCI/ADR-RES ovarian
# BT-549 breast = test system: BT-549 breast
# HCT-116 colon = test system: HCT-116 colon
# T-47D breast = test system: T-47D breast
# U251 CNS = test system: U251 CNS
# HOP-62 NSCLC = test system: HOP-62 NSCLC
# NCI-H226 lung = test system: NCI-H226 lung
# HOP-92 NSCLC = test system: HOP-92 NSCLC
# M14 melanoma = test system: M14 melanoma
# MDA-MB-468 breast = test system: MDA-MB-468 breast
# HL-60(TB) leukemia = test system: HL-60(TB) leukemia
# A549 NSCLC = test system: A549 NSCLC
# RPMI-8226 leukemia = test system: RPMI-8226 leukemia
# DU-145 prostate = test system: DU-145 prostate
# MCF7 breast = test system: MCF7 breast
# SW-620 colon = test system: SW-620 colon
# UACC-62 melanoma = test system: UACC-62 melanoma
# HS 578T breast = test system: HS 578T breast
# OVCAR-5 ovarian = test system: OVCAR-5 ovarian
# NCI-H460 lung = test system: NCI-H460 lung
smiles,measurement,setting,value
CCCCSc1nc(Nc2ccc(S(N)(=O)=O)cc2)c(C#N)c(-c2ccc(Cl)cc2)n1,GI50,KM12 colon,6.26 µM
same,TGI,KM12 colon,30.2 µM
same,GI50,SF-295 CNS,1.82 µM
same,TGI,SF-295 CNS,3.78 µM
same,GI50,SF-539 CNS,1.62 µM
same,TGI,SF-539 CNS,3.23 µM
same,GI50,TK-10 renal,2.32 µM
same,TGI,TK-10 renal,6.86 µM
same,GI50,RXF 393 renal,1.81 µM
same,TGI,RXF 393 renal,5.12 µM
same,GI50,PC-3 prostate,5.39 µM
same,TGI,PC-3 prostate,26 µM
same,GI50,SK-MEL-28 melanoma,5.98 µM
same,TGI,SK-MEL-28 melanoma,31.1 µM
same,GI50,HT29 colon,2.73 µM
same,TGI,HT29 colon,9.84 µM
same,GI50,OVCAR-4 ovarian,1.83 µM
same,TGI,OVCAR-4 ovarian,3.89 µM
same,GI50,ACHN renal,1.88 µM
same,TGI,ACHN renal,3.67 µM
same,GI50,HCC-2998 colon,6.56 µM
same,TGI,HCC-2998 colon,78.3 µM
same,GI50,786-0 renal,1.98 µM
same,TGI,786-0 renal,5.11 µM
same,GI50,UACC-257 melanoma,14.9 µM
same,TGI,UACC-257 melanoma,> 100 µM
same,GI50,MALME-3M melanoma,3.03 µM
same,TGI,MALME-3M melanoma,11 µM
same,GI50,SNB-19 CNS,3.65 µM
same,TGI,SNB-19 CNS,15.7 µM
same,GI50,CAKI-1 renal,1.94 µM
same,TGI,CAKI-1 renal,4.8 µM
same,GI50,MOLT-4 leukemia,3.15 µM
same,TGI,MOLT-4 leukemia,20.1 µM
same,GI50,OVCAR-8 ovarian,2.08 µM
same,TGI,OVCAR-8 ovarian,4.93 µM
same,GI50,CCRF-CEM leukemia,7.69 µM
same,TGI,CCRF-CEM leukemia,> 100 µM
same,GI50,LOX IMVI melanoma,1.72 µM
same,TGI,LOX IMVI melanoma,3.33 µM
same,GI50,EKVX NSCLC,3.51 µM
same,TGI,EKVX NSCLC,19.7 µM
same,GI50,UO-31 renal,2 µM
same,TGI,UO-31 renal,6.33 µM
same,GI50,MDA-MB-435,4.01 µM
same,TGI,MDA-MB-435,> 100 µM
same,GI50,SK-MEL-2 melanoma,27.6 µM
same,TGI,SK-MEL-2 melanoma,> 100 µM
same,GI50,NCI-H23 lung,3.43 µM
same,TGI,NCI-H23 lung,12.4 µM
same,GI50,SK-OV-3 ovarian,3.63 µM
same,TGI,SK-OV-3 ovarian,14.1 µM
same,GI50,SN12C renal,2.08 µM
same,TGI,SN12C renal,8.71 µM
same,GI50,COLO 205 colon,13.4 µM
same,TGI,COLO 205 colon,42.9 µM
same,GI50,OVCAR-3 ovarian,2.23 µM
same,TGI,OVCAR-3 ovarian,4.91 µM
same,GI50,SNB-75 CNS,1.1 µM
same,TGI,SNB-75 CNS,3.22 µM
same,GI50,NCI-H522 lung,10.6 µM
same,TGI,NCI-H522 lung,70.5 µM
same,GI50,SF-268 CNS,5.64 µM
same,TGI,SF-268 CNS,42.1 µM
same,GI50,A498 renal,6.41 µM
same,TGI,A498 renal,27.8 µM
same,GI50,MDA-MB-231 breast,2.14 µM
same,TGI,MDA-MB-231 breast,5.3 µM
same,GI50,IGROV1 ovarian,5.79 µM
same,TGI,IGROV1 ovarian,41.3 µM
same,GI50,SK-MEL-5 melanoma,8.46 µM
same,TGI,SK-MEL-5 melanoma,33.5 µM
same,GI50,NCI/ADR-RES ovarian,2.98 µM
same,TGI,NCI/ADR-RES ovarian,9.58 µM
same,GI50,BT-549 breast,17.9 µM
same,TGI,BT-549 breast,62 µM
same,GI50,HCT-116 colon,2 µM
same,TGI,HCT-116 colon,4.35 µM
same,GI50,T-47D breast,19.9 µM
same,TGI,T-47D breast,> 100 µM
same,GI50,U251 CNS,1.58 µM
same,TGI,U251 CNS,3.28 µM
same,GI50,HOP-62 NSCLC,2.18 µM
same,TGI,HOP-62 NSCLC,4.97 µM
same,GI50,NCI-H226 lung,2.29 µM
same,TGI,NCI-H226 lung,6 µM
same,GI50,HOP-92 NSCLC,1.01 µM
same,TGI,HOP-92 NSCLC,4.71 µM
same,GI50,M14 melanoma,2.36 µM
same,TGI,M14 melanoma,6.09 µM
same,GI50,MDA-MB-468 breast,14.5 µM
same,TGI,MDA-MB-468 breast,36.1 µM
same,GI50,HL-60(TB) leukemia,50.6 µM
same,TGI,HL-60(TB) leukemia,> 100 µM
same,GI50,A549 NSCLC,2.61 µM
same,TGI,A549 NSCLC,9.81 µM
same,GI50,RPMI-8226 leukemia,5.17 µM
same,TGI,RPMI-8226 leukemia,> 100 µM
same,GI50,DU-145 prostate,4.95 µM
same,TGI,DU-145 prostate,18 µM
same,GI50,MCF7 breast,4.59 µM
same,TGI,MCF7 breast,> 100 µM
same,GI50,SW-620 colon,3.3 µM
same,TGI,SW-620 colon,12.4 µM
same,GI50,UACC-62 melanoma,2.8 µM
same,TGI,UACC-62 melanoma,8.98 µM
same,GI50,HS 578T breast,2.46 µM
same,TGI,HS 578T breast,8.71 µM
same,GI50,OVCAR-5 ovarian,4.77 µM
same,TGI,OVCAR-5 ovarian,22.9 µM
same,GI50,NCI-H460 lung,2.08 µM
same,TGI,NCI-H460 lung,4.66 µM
